Common to all, as to assay type: cell-based
In assay [1] the test system is PANC-1 pancreatic cancer cells. Description: Panobinostat (HDAC inhibitor) sensitization, cytotoxicity in PANC-1 pancreatic cancer cells. As to conditions: PANC-1 cells; for EC50: Homo sapiens; for increase in panobinostat sensitivity (fold): 1 μM compound vs DMSO. The procedure: Reference is made to FIG. 3. (A) In PANC-1 pancreatic cancer cells, the cytotoxicity of each of the indicated HDAC inhibitors was evaluated in the presence and absence of 1 μM E64FC26. EC50 values are shown. (B) Similar experiments as described in (A) were conducted using T98G glioblastoma cells. EC50 values for each of the HDAC inhibitor in the presence and absence of 1 μM E64FC26. (C) Panels of the indicated tumor cell types were treated with a dose range of the HDAC inhibitor panobinostat in the presence and absence of 1 μM E64FC26. EC50 values were extrapolated and the relative effect of E64FC26 on panobinostat sensitivity was calculated. Each data point indicated the fold change in panobinostat EC50 for that particular cell line. (D) An example of full panobinostat dose response curves in PANC-1 pancreatic cancer cells are shown. PANC-1 cells were co-treated with DMSO vehicle control, 1 μM E64FC26, or 1 μM E64FC65.

The test system of the next assay is MM.1S BzR cells. Description: Bortezomib sensitization, cell viability in PI-resistant MM.1S BzR cells. As to conditions: for EC50: Homo sapiens, MM1.S, cell viability after 24 hours. The procedure: (§1) Reference is made to FIG. 1. (A) The structures of novel derivatives E64FC26 and E64FC65 are shown. (B) Proteasome inhibitor (PI) resistant MM.1S BzR cells were treated with the E64FC26 at a concentration of 500 nM and a dose range of the PI bortezomib (Btz). Cell viability was measured after 24 hours of treatment. […] (C) PANC-1 pancreatic cancer cells were treated with the indicated derivative at a final concentration of 1 μM and a dose range of Btz. Cell viability was measured after a 48 hour treatment time. […] (D) Panels of pancreatic, ovarian, glioma, multiple myeloma, and normal cells were treated with E64FC26 and a dose range of the second generation proteasome inhibitor carfilzomib (Crflz) using a protocol similar to that described above for panels (B) and (C). Crflz EC50 values were extrapolated from dose curves conducted in the presence and absence of E64FC26 and a fold-change was calculated. Each data point represents the fold-change, or the degree of Crflz potentiation, for each cell line tested.

The test system of assay [2] is PANC-1 pancreatic cancer cells. Description: Bortezomib sensitization, cell viability in PANC-1 pancreatic cancer cells. As to conditions: PANC-1 cells; for EC50: Homo sapiens, cell viability after 48 hour treatment; for fold increase in Btz sensitivity: compound at 1 μM vs DMSO, 48 hour. As for the experimental part:
as §1

Where [3] appears, read: compound at 1 μM, read-out: Btz EC50 in the presence of the compound.
The mark [4] stands for this setting: co-treated with 1 μM compound, read-out: panobinostat EC50 in the presence of the compound.

By EC50 is commonly meant the concentration needed to bring the measured effect to its halfway point.

Like-named read-outs stand apart in the source and are kept apart here.

For the compound `Cc1[nH]c2ccccc2c1CCNCc1ccc(/C=C/C(=O)NO)cc1` [panobinostat, reference compound], the EC50 in assay [1] (panobinostat alone (DMSO vehicle), read-out: panobinostat EC50 in DMSO treated cells) stood at 453 nM.
Regarding `CCCCCCCC/C=C1\C=C(C(F)(F)F)c2cc(O)c(O)cc21` [E64FC26], the “fold increase in Btz sensitivity” value turned out to be 9.7 fold in the assay with MM.1S BzR cells (500 nM compound vs DMSO, 24 hours) and 9.2 fold in assay [2]. The EC50 with MM.1S BzR cells (co-treatment with 500 nM compound, read-out: Btz EC50 in cells co-treated with the compound) came to 4.7 nM; in assay [2] (setting [3]), 9.1 nM; in assay [1] (setting [4]), 5.3 nM. For the same compound, the “increase in panobinostat sensitivity (fold)” value in assay [1] is 85.5 fold.
In the case of `CCCCCC/C=C1\C=C(C(F)(F)F)c2cc3c(cc21)OCO3` [E64FC65, (5E)-7-(trifluoromethyl)-5-heptylidene-5H-indeno[5,6-d][1,3]dioxole], the 50% effective concentration (EC50) in assay [2] (setting [3]) was 1.8 nM; in assay [1] (setting [4]), 1.1 nM. In addition, the “fold increase in Btz sensitivity” value in assay [2] is 46.4 fold. Also, the “increase in panobinostat sensitivity (fold)” value in assay [1] was found to be 412 fold.
`CC(C)C[C@H](NC(=O)[C@H](Cc1ccccc1)NC(=O)c1cnccn1)B(O)O` [Btz, bortezomib, reference compound]: the EC50 was 45.5 nM in the assay on MM.1S BzR cells (Btz alone (DMSO vehicle), read-out: Btz EC50, control cells treated with DMSO vehicle) and 83.5 nM in assay [2] (Btz alone (DMSO vehicle), read-out: Btz EC50 in the presence of DMSO vehicle control).

For the origin of these results see patent US10329269B2, “Indene derivatives and uses thereof” (MUSC FOUNDATION FOR RESEARCH DEVELOPMENT, priority 2017, dated 2019).
